Ten molecules from patent publication US20150337013A1, “NOVEL ANTIBACTERIAL AGENTS FOR THE TREATMENT OF GRAM POSITIVE INFECTIONS” (priority 2008, published 2015) can be followed below.

Assay [1] concerns Staphylococcus aureus SAU.278, Daptomycin resistant mutant (D10). Type of assay: cell-based. The note with it: MHBc with 50 mg/L calcium, 18-20 hours at 37° C. How it is done: (§1) Compounds according to Formula I were tested for antimicrobial activity against a panel of organisms. Aerobic organisms, Staphylococcus aureus, Enterococcus faecalis and E. faecium, were tested by broth microdilution according to Clinical and Laboratory Standards Institute (CLSI) document M7-A7 (Clinical and Laboratory Standards Institute. Methods for Dilution Antimicrobial Susceptibility Tests for Bacteria that Grow Aerobically; Approved Standard—Seventh Edition. CLSI document M7-A7 [ISBN 1-56238-587-9]. Clinical and Laboratory Standards Institute, 940 West Valley Road, Suite 1400, Wayne, Pa. 19087-1898 USA, 2006) with modifications as described below. Mueller Hinton Broth (MHBc) was supplemented with 50 mg/L calcium (equivalent to human physiological levels of calcium) and assay plates were incubated 18-20 hours at 37° C. with aeration (200 rpm).
(§2) In all cases the final concentration of dimethyl sulfoxide incubated with cells is less than or equal to 1%. For minimum inhibitory concentration (MIC) calculations, 2-fold dilutions of compounds were added to wells of a microtiter plate containing 5×10^5 bacteria in a final volume of 100 μL of media. Following incubation, (18-20 hours at 37° C. with aeration at 200 rpm) growth was confirmed visually by placing plates over a viewing apparatus (stand with a mirror underneath) and then the optical density (OD600) was measured using a SpectraMax 340PC^384 plate reader. Growth was defined as turbidity that could be detected with the naked eye or achieving minimum OD600of 0.1. MIC values (in μg/mL) were defined as the lowest concentration producing no visible turbidity.

Assay [2] concerns Enterococcus faecalis EFS.201 (ATCC 49452). In kind it is cell-based. How it is done: as §1, §2
The subject of assay [3] is Enterococcus faecalis EFS.312, Daptomycin resistant mutant (EFA). In kind it is cell-based. The note with it: MHBc with 50 mg/L calcium, 18-20 hours at 37° C. How it is done: as §1, §2
Assay [4] has as its system Staphylococcus aureus SAU.42 (ATCC 29213). In kind it is cell-based. How it is done:
as §1, §2

In assay [5] the test system is Staphylococcus aureus SAU.399 (ATCC 43300), Methicillin and Oxacillin Resistant. Type of assay: cell-based. The note with it: ATCC 43300. As to the method:
as §1, §2

For assay [6], the system named is Enterococcus faecium EFM.384, Daptomycin resistant mutant (14-A). In kind it is cell-based. The note with it: MHBc with 50 mg/L calcium, 18-20 hours at 37° C. As to the method: as §1, §2
Assay [7] has as its system Clostridium difficile.
Assay [8] concerns Enterococcus faecium EFM.14 (ATCC 6569). Type of assay: cell-based. How it is done: as §1, §2
Where [9] appears, read: MHBc with 50 mg/L calcium, 18-20 hours at 37° C.

Several values for one entry are separate records, joined by “and”; a condition that tells them apart may be missing. Equal values may be shown once. Read-outs that look alike come from different tables or passages of the source.

For `CCCCCC1CCC([C@H]2CC[C@H](C(=O)N[C@@H](Cc3c[nH]c4ccccc34)C(=O)N[C@H](CC(N)=O)C(=O)N[C@@H](CC(=O)O)C(=O)N[C@@H]3C(=O)NCC(=O)N[C@@H](CCCN)C(=O)N[C@@H](CC(=O)O)C(=O)N[C@H](C)C(=O)N[C@@H](CC(=O)O)C(=O)NCC(=O)N[C@H](CO)C(=O)N[C@@H]([C@H](C)CC(=O)O)C(=O)N[C@@H](CC(=O)c4ccccc4N)C(=O)O[C@@H]3C)CC2)CC1` (some centres unmarked) [Compound 20], the “Sa278 MIC” value in assay [1] came out at 8 µg/mL. Further, the “Efs201 MIC” value in assay [2] (ATCC 49452) was 0.5 µg/mL. The “Efs312 MIC” value in assay [3] amounted to 4 µg/mL. The “Sa42 MIC” value in assay [4] (ATCC 29213) amounted to 0.5 µg/mL. Further, in assay [5], the “Sa399 MIC” value worked out at 2 µg/mL.
With `CC(C)c1ccc(CCCC(=O)N[C@@H](Cc2c[nH]c3ccccc23)C(=O)N[C@H](CC(N)=O)C(=O)N[C@@H](CC(=O)O)C(=O)N[C@@H]2C(=O)NCC(=O)N[C@@H](CCCN)C(=O)N[C@@H](CC(=O)O)C(=O)N[C@H](C)C(=O)N[C@@H](CC(=O)O)C(=O)NCC(=O)N[C@H](CO)C(=O)N[C@@H]([C@H](C)CC(=O)O)C(=O)N[C@@H](CC(=O)c3ccccc3N)C(=O)O[C@@H]2C)cc1` [Compound 30, N-[4-(4-isopropylphenyl)butanoyl]-L-tryptophyl-D-asparaginyl-L-α-aspartyl-L-threonylglycyl-L-ornithyl-L-α-aspartyl-D-alanyl-L-α-aspartylglycyl-D-seryl-(3R)-3-methyl-L-α-glutamyl-(αS)-α,2-diamino-γ-oxobenzenebutanoic acid (13→4)-lactone], the “Efm384 MIC” value in assay [6] was greater than 32 µg/mL. The “Sa278 MIC” value in assay [1] turned out to be 32 µg/mL. Further, the “Efs201 MIC” value in assay [2] (ATCC 49452) turned out to be 8 µg/mL. For the same molecule, in assay [3], the “Efs312 MIC” value is greater than 32 µg/mL. Also, the “C. diff MIC90” value in assay [7] worked out at 8 µg/mL.
Regarding `CCCCCCCCCOc1ccc(C(=O)N[C@@H](Cc2c[nH]c3ccccc23)C(=O)N[C@H](CC(N)=O)C(=O)N[C@@H](CC(=O)O)C(=O)N[C@@H]2C(=O)NCC(=O)N[C@@H](CCCN)C(=O)N[C@@H](CC(=O)O)C(=O)N[C@H](C)C(=O)N[C@@H](CC(=O)O)C(=O)NCC(=O)N[C@H](CO)C(=O)N[C@@H]([C@H](C)CC(=O)O)C(=O)N[C@@H](CC(=O)c3ccccc3N)C(=O)O[C@@H]2C)cc1` [Compound 37], in assay [6], the “Efm384 MIC” value is 2 µg/mL. Besides, the “Sa278 MIC” value in assay [1] turned out to be 0.25 µg/mL. The “Efs201 MIC” value in assay [2] (setting [9]) was determined as 0.5 µg/mL. Moreover, the “Efs312 MIC” value in assay [3] is 2 µg/mL. In assay [4] (setting [9]), the “Sa42 MIC” value was found to be 0.25 µg/mL. The “Efm14 MIC” value in assay [8] (setting [9]) amounted to 0.5 µg/mL. In addition, the “C. diff MIC90” value in assay [7] is 1 µg/mL.
As to `CCCCCCC1CCC(C(=O)N[C@@H](Cc2c[nH]c3ccccc23)C(=O)N[C@H](CC(N)=O)C(=O)N[C@@H](CC(=O)O)C(=O)N[C@@H]2C(=O)NCC(=O)N[C@@H](CCCN)C(=O)N[C@@H](CC(=O)O)C(=O)N[C@H](C)C(=O)N[C@@H](CC(=O)O)C(=O)NCC(=O)N[C@H](CO)C(=O)N[C@@H]([C@H](C)CC(=O)O)C(=O)N[C@@H](CC(=O)c3ccccc3N)C(=O)O[C@@H]2C)CC1` (some centres unmarked) [Compound 18], the “Efm384 MIC” value in assay [6] turned out to be 8 µg/mL. Moreover, the “Sa278 MIC” value in assay [1] is 4 µg/mL and 2 µg/mL. Also, in assay [3], the “Efs312 MIC” value was 32 µg/mL and 16 µg/mL. For the same molecule, in assay [8] (ATCC 6569), the “Efm14 MIC” value came out at 2 µg/mL. For the same molecule, the “Sa399 MIC” value in assay [5] is 1 µg/mL. In addition, the “C. diff MIC90” value in assay [7] was found to be 0.5 µg/mL.
For the molecule `CCCCCCOc1ccc(-c2ccc(C(=O)N[C@@H](Cc3c[nH]c4ccccc34)C(=O)N[C@H](CC(N)=O)C(=O)N[C@@H](CC(=O)O)C(=O)N[C@@H]3C(=O)NCC(=O)N[C@@H](CCCN)C(=O)N[C@@H](CC(=O)O)C(=O)N[C@H](C)C(=O)N[C@@H](CC(=O)O)C(=O)NCC(=O)N[C@H](CO)C(=O)N[C@@H]([C@H](C)CC(=O)O)C(=O)N[C@@H](CC(=O)c4ccccc4N)C(=O)O[C@@H]3C)cc2)cc1` [Compound 62], in assay [6], the “Efm384 MIC” value was 1 µg/mL. Further, in assay [1], the “Sa278 MIC” value is 0.5 µg/mL. The “Efs201 MIC” value in assay [2] (setting [9]) came out at 0.25 µg/mL. Moreover, in assay [3], the “Efs312 MIC” value is 2 µg/mL and 4 µg/mL. In addition, in assay [8] (setting [9]), the “Efm14 MIC” value is 0.5 µg/mL. In assay [7], the “C. diff MIC90” value turned out to be 2 µg/mL.
As to `CCCCCCOc1ccc(-c2csc(C(=O)N[C@@H](Cc3c[nH]c4ccccc34)C(=O)N[C@H](CC(N)=O)C(=O)N[C@@H](CC(=O)O)C(=O)N[C@@H]3C(=O)NCC(=O)N[C@@H](CCCN)C(=O)N[C@@H](CC(=O)O)C(=O)N[C@H](C)C(=O)N[C@@H](CC(=O)O)C(=O)NCC(=O)N[C@H](CO)C(=O)N[C@@H]([C@H](C)CC(=O)O)C(=O)N[C@@H](CC(=O)c4ccccc4N)C(=O)O[C@@H]3C)c2)cc1` [Compound 58, N-[4-(4-(hexyloxy)phenyl)thiophene-2-carbonyl]-L-tryptophyl-D-asparaginyl-L-α-aspartyl-L-threonylglycyl-L-ornithyl-L-α-aspartyl-D-alanyl-L-α-aspartylglycyl-D-seryl-(3R)-3-methyl-L-α-glutamyl-(αS)-α,2-diamino-γ-oxobenzenebutanoic acid (13→4)-lactone], the “Sa278 MIC” value in assay [1] is 0.5 µg/mL and 1 µg/mL. The “C. diff MIC90” value in assay [7] was found to be 4 µg/mL.
`C[C@H](CC(=O)O)[C@@H]1NC(=O)[C@@H](CO)NC(=O)CNC(=O)[C@H](CC(=O)O)NC(=O)[C@@H](C)NC(=O)[C@H](CC(=O)O)NC(=O)[C@H](CCCN)NC(=O)CNC(=O)[C@@H](NC(=O)[C@H](CC(=O)O)NC(=O)[C@@H](CC(N)=O)NC(=O)[C@H](Cc2c[nH]c3ccccc23)NC(=O)CCCCCCc2ccccc2)[C@@H](C)OC(=O)[C@H](CC(=O)c2ccccc2N)NC1=O` [Compound 47]: the “Efm384 MIC” value in assay [6] was greater than 32 µg/mL. Further, the “Sa278 MIC” value in assay [1] was greater than 32 µg/mL. For the same molecule, the “Efs312 MIC” value in assay [3] was greater than 32 µg/mL. Also, in assay [8] (ATCC 6569), the “Efm14 MIC” value is greater than 32 µg/mL. Moreover, the “Sa399 MIC” value in assay [5] is 16 µg/mL. In addition, the “C. diff MIC90” value in assay [7] worked out at 8 µg/mL.
For `CCCC1CCC(c2ccc(C(=O)N[C@@H](Cc3c[nH]c4ccccc34)C(=O)N[C@H](CC(N)=O)C(=O)N[C@@H](CC(=O)O)C(=O)N[C@@H]3C(=O)NCC(=O)N[C@@H](CCCN)C(=O)N[C@@H](CC(=O)O)C(=O)N[C@H](C)C(=O)N[C@@H](CC(=O)O)C(=O)NCC(=O)N[C@H](CO)C(=O)N[C@@H]([C@H](C)CC(=O)O)C(=O)N[C@@H](CC(=O)c4ccccc4N)C(=O)O[C@@H]3C)cc2)CC1` (single isomer, unassigned) [53 isomer I], the “Efm384 MIC” value in assay [6] was 2 µg/mL and 1 µg/mL. In addition, in assay [1], the “Sa278 MIC” value was 0.25 µg/mL and 0.5 µg/mL. In addition, the “Efs312 MIC” value in assay [3] came out at 2 µg/mL. The “Efm14 MIC” value in assay [8] (ATCC 6569) came out at 0.25 µg/mL. In addition, in assay [5], the “Sa399 MIC” value is 0.125 µg/mL. Moreover, in assay [7], the “C. diff MIC90” value came out at 1 µg/mL.
As for `C[C@H](CC(=O)O)[C@@H]1NC(=O)[C@@H](CO)NC(=O)CNC(=O)[C@H](CC(=O)O)NC(=O)[C@@H](C)NC(=O)[C@H](CC(=O)O)NC(=O)[C@H](CCCN)NC(=O)CNC(=O)[C@@H](NC(=O)[C@H](CC(=O)O)NC(=O)[C@@H](CC(N)=O)NC(=O)[C@H](Cc2c[nH]c3ccccc23)NC(=O)CCCCCc2ccccc2)[C@@H](C)OC(=O)[C@H](CC(=O)c2ccccc2N)NC1=O` [Compound 46], the “Efm384 MIC” value in assay [6] is greater than 32 µg/mL. Further, in assay [1], the “Sa278 MIC” value was greater than 32 µg/mL. Further, in assay [2] (ATCC 49452), the “Efs201 MIC” value is greater than 32 µg/mL. Besides, in assay [3], the “Efs312 MIC” value was greater than 32 µg/mL. Moreover, the “Efm14 MIC” value in assay [8] (ATCC 6569) is greater than 32 µg/mL. For the same molecule, in assay [7], the “C. diff MIC90” value worked out at 16 µg/mL.
As to `C[C@H](CC(=O)O)[C@@H]1NC(=O)[C@@H](CO)NC(=O)CNC(=O)[C@H](CC(=O)O)NC(=O)[C@@H](C)NC(=O)[C@H](CC(=O)O)NC(=O)[C@H](CCCN)NC(=O)CNC(=O)[C@@H](NC(=O)[C@H](CC(=O)O)NC(=O)[C@@H](CC(N)=O)NC(=O)[C@H](Cc2c[nH]c3ccccc23)NC(=O)c2ccc(-c3ccc(Cl)cc3)cc2)[C@@H](C)OC(=O)[C@H](CC(=O)c2ccccc2N)NC1=O` [Compound 68], in assay [6], the “Efm384 MIC” value is greater than 32 µg/mL. For the same molecule, in assay [1], the “Sa278 MIC” value is 32 µg/mL. Also, the “Efs201 MIC” value in assay [2] (ATCC 49452) turned out to be 16 µg/mL. Besides, the “Efs312 MIC” value in assay [3] was greater than 32 µg/mL. Further, the “Sa42 MIC” value in assay [4] (ATCC 29213) was 4 µg/mL. Moreover, the “Efm14 MIC” value in assay [8] (ATCC 6569) was 16 µg/mL. Moreover, in assay [7], the “C. diff MIC90” value came to 16 µg/mL.
